Reference: ChEMBL document CHEMBL4814061, “Novel Azaquinolones as PARP1 Inhibitors for Treating Cancer” (ACS Med Chem Lett, 2021)

Biological target: Poly [ADP-ribose] polymerase 1 (Homo sapiens, UniProt P09874)
Experiment: Inhibition of recombinant full length 6His-tagged PARP1 (unknown origin) incubated for 4 hrs by fluorescence anisotropy assay

Sequence of Poly [ADP-ribose] polymerase 1 (P09874 whole entry): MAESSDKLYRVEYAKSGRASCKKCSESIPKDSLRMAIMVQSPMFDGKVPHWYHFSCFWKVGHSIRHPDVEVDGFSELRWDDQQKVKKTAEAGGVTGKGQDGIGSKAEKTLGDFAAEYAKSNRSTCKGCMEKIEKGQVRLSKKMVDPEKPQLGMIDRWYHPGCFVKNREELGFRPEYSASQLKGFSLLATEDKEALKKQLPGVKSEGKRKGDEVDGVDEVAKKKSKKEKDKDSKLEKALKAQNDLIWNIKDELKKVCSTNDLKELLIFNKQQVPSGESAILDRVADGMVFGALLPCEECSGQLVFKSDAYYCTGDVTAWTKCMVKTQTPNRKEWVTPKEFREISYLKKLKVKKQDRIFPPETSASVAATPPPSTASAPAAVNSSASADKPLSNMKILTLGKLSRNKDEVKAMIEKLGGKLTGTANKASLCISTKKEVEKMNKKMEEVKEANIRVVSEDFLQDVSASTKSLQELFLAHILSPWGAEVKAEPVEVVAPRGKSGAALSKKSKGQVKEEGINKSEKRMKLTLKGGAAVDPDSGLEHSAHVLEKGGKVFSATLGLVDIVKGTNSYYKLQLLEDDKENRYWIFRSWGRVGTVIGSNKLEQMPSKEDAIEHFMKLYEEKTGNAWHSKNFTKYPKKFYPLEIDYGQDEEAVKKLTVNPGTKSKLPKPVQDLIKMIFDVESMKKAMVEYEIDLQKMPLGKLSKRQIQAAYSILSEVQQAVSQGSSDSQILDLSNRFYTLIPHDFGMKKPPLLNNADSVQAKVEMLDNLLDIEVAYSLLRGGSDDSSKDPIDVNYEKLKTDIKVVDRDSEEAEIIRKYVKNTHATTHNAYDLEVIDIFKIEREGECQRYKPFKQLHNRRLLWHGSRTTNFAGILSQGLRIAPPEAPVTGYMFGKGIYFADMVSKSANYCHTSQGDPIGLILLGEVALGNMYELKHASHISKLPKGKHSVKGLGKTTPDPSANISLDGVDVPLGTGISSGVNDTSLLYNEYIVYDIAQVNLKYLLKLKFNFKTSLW

Row | SMILES | IC50
1 | CCc1cc2cnc(CN3CCN(c4ccc(C(=O)NC)nc4F)CC3)cc2[nH]c1=O | 2 nM
2 | CCc1cc2cnc(CN3CCN(c4ccc(C(N)=O)nc4)CC3)cc2[nH]c1=O | 2 nM

More lines, in order of falling IC50, values ahead:

Row | IC50 | SMILES
3 | 3 nM | CNC(=O)c1ccc(N2CCN(Cc3cc4[nH]c(=O)c(CC(F)F)cc4cn3)CC2)c(F)n1
4 | 3 nM | CCc1cc2cnc(CN3CCN(c4ccc(C(=O)NC)nc4Cl)CC3)cc2[nH]c1=O
5 | 2 nM | CNC(=O)c1ccc(N2CCN(Cc3cc4[nH]c(=O)c(CCF)cc4cn3)CC2)cn1
